This passage reports IC50 and inhibition results from patent US20130165464A1, “HETEROARYLS AND USES THEREOF” (MILLENNIUM PHARMACEUTICALS, INC., priority 2011, published 2013).

The target in the assay is T1, VPS34 (Homo sapiens, UniProt Q8NEB9).
T1 construct: GST (N); host or cells: SF9 insect cells (baculovirus)
Put plainly: Human VPS34 enzyme assay (Adapta TR-FRET). As to conditions: for inhibition at 1.11 µM: 1 h, at a 1.11 μM concentration, read-out: VPS34 Percent Inhibition. It counts as biochemical. On the procedure:
VPS34 (accession number GB:BCO33004) was cloned into pDEST20-Thombin as N-terminal GST tagged fusion proteins using the Gateway system (Invitrogen, catalog#11804-013). The sequences were verified before recombinant protein expression using the Baculovirus Expression System with Gateway® Technology.
For expression VPS34 was infected at 1MOI in SF9 cells and harvested 72 hours post infection.
For purification, VPS34 is purified by Glutathione Sepharose 4 Fast Flow (GE Healthcare #17-5132-03) followed by HiTrap Q (GE Healthcare #17-1153-01).
Human VPS34 Enzyme Assay Method
100 nL compounds in DMSO are added to wells of a 384 well microtitre plate (Greiner 780076). At room temperature: 5 ul VPS34 reaction buffer (Invitrogen Assay Buffer Q (diluted 1 in 5 with nanopure water) plus 2 mM DTT and 2 mM MnCl2) containing ATP (20 uM, Promega) and 200 uM PI-PS substrate (Invitrogen PV5122) is added followed immediately by 5 ul VPS34 reaction buffer (as above) containing VPS34 (5 nM, Millennium Protein Sciences Group) and the mixture is incubated with shaking at room temperature for 1 hour. Then 5 ul VPS34 stop-detect mix (as per Invitrogen Adapta Assay kit (PV5009) instructions (contains kinase quench buffer, TR-FRET buffer, Adapta Eu anti-ADP antibody and Alexa Fluor 647 ADP tracer)) is added to quench the reaction. The plates are then incubated for 30 minutes at room temperature with shaking and then read on a BMG PheraStar Plus reader.
For the assay methods described above, test compound percent inhibition, at various concentrations, is calculated relative to control (DMSO and EDTA) treated samples. Compound concentration versus percent inhibition curves are fitted to generate IC50 values. One skilled in the art will appreciate that the values generated either as percentage inhibition at a single concentration or IC50 values are subject to experimental variation.

T1 sequence (Q8NEB9 whole entry): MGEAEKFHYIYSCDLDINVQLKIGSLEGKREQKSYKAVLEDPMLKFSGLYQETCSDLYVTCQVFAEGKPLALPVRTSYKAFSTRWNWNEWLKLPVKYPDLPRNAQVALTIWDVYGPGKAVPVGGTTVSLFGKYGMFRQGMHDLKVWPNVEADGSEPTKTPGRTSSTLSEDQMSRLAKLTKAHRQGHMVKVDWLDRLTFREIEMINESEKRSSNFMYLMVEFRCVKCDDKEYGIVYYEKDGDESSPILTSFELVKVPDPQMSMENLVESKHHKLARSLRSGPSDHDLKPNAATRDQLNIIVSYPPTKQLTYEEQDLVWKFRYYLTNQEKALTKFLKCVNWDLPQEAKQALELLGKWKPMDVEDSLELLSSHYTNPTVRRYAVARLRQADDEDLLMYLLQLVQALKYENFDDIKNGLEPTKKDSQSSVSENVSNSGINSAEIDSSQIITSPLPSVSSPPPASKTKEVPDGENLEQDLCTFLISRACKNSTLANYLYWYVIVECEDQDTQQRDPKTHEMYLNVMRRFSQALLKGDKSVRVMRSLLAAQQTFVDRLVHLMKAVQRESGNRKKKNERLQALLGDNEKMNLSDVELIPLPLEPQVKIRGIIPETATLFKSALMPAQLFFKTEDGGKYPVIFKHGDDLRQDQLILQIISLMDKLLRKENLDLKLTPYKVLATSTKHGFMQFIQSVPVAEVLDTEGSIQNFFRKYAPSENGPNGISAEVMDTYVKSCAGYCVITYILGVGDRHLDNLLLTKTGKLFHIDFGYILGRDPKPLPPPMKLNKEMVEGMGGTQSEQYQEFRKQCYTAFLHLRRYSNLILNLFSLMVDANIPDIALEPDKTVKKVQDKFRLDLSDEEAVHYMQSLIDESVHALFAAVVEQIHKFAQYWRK

Regarding `Cc1cnc(NC(=O)C(C)C)cc1-n1cc(C(N)=O)c(-c2ccccc2Cl)c1` [I-33, 4-(2-chlorophenyl)-1-[2-(isobutyrylamino)-5-methylpyridin-4-yl]-1H-pyrrole-3-carboxamide], the IC50 was in the range of 1000 to 5000 nM and the inhibition at 1.11 µM came out at 42%.
The matching figures for `Cc1cnc(NC(=O)C2CC2)cc1-n1cc(C(N)=O)c(-c2ccccc2Cl)n1` [I-34, 3-(2-chlorophenyl)-1-{2-[(cyclopropylcarbonyl)amino]-5-methylpyridin-4-yl}-1H-pyrazole-4-carboxamide]: 150 to 1000 nM and 92%.
As for `COc1ccc(-c2nn(-c3cc(NC(C)=O)ncc3C)cc2-c2nc[nH]n2)c(Cl)c1` [I-35, N-{4-[3-(2-chloro-4-methoxyphenyl)-4-(1H-1,2,4-triazol-3-yl)-1H-pyrazol-1-yl]-5-methylpyridin-2-yl}acetamide], the half-inhibitory concentration (IC50) is less than 50 nM and the inhibition at 1.11 µM is more than 99%.
For `COC(=O)Nc1cc(-n2cc(C(N)=O)c(-c3ccccc3Cl)c2)c(C)cn1` [I-36, methyl {4-[3-carbamoyl-4-(2-chlorophenyl)-1H-pyrrol-1-yl]-5-methylpyridin-2-yl}carbamate], the half-inhibitory concentration (IC50) is less than 50 nM and the inhibition at 1.11 µM was more than 99%.
For `CC(=O)Nc1cc(-n2cc(C(N)=O)c(-c3ccccc3Cl)c2)c(Cl)cn1` [I-37, 1-(2-acetamido-5-chloropyridin-4-yl)-4-(2-chlorophenyl)-1H-pyrrole-3-carboxamide], the IC50 lay within 150 to 1000 nM and the inhibition at 1.11 µM was found to be 88%.
Take `CC(=O)Nc1cc(-n2cc(-c3nc[nH]n3)c(-c3ccccc3S(C)(=O)=O)c2)ccn1` [I-38, N-(4-{3-[2-(methylsulfonyl)phenyl]-4-(1H-1,2,4-triazol-3-yl)-1H-pyrrol-1-yl}pyridin-2-yl)acetamide]: the inhibition at 1.11 µM was more than 99%.
As to `CC(=O)Nc1cc(-n2cc(-c3nnc[nH]3)c(-c3ccc(Cl)cc3Cl)n2)c(C)cn1` [I-39, N-{4-[3-(2,4-dichlorophenyl)-4-(4H-1,2,4-triazol-3-yl)-1H-pyrazol-1-yl]-5-methylpyridin-2-yl}acetamide], the IC50 is less than 50 nM and the inhibition at 1.11 µM is more than 99%.
`Cc1cnc(NC(=O)C2CC2)cc1-n1cc(C(N)=O)c(-c2ccccc2Cl)c1` [I-40, 4-(2-chlorophenyl)-1-{2-[(cyclopropylcarbonyl)amino]-5-methylpyridin-4-yl}-1H-pyrrole-3-carboxamide]: the IC50 is less than 50 nM and the inhibition at 1.11 µM was more than 99%.
As for `CC(=O)Nc1cc(-n2cc(C(N)=O)c(-c3ccccc3Cl)c2)c(C)cn1` [I-41, 1-(2-acetamido-5-methylpyridin-4-yl)-4-(2-chlorophenyl)-1H-pyrrole-3-carboxamide], the inhibition at 1.11 µM is 78%.
Turning to `CC(=O)Nc1cc(-n2cc(-c3nc[nH]n3)c(-c3cc(CN(C)C)ccc3Cl)n2)c(C)cn1` [I-42, N-{4-[3-{2-chloro-5-[(dimethylamino)methyl]phenyl}-4-(1H-1,2,4-triazol-3-yl)-1H-pyrazol-1-yl]-5-methylpyridin-2-yl}acetamide], the IC50 is less than 50 nM and the inhibition at 1.11 µM is more than 99%.
The matching figures for `NC(=O)c1cn(-c2ccnc(NCCc3ccc(O)cc3)n2)nc1-c1ccccc1Cl` [I-43, 3-(2-chlorophenyl)-1-(2-{[2-(4-hydroxyphenyl)ethyl]amino}pyrimidin-4-yl)-1H-pyrazole-4-carboxamide]: 1000 to 5000 nM and 27%.
For the molecule `CC(=O)Nc1cc(-n2cc(-c3nc[nH]n3)c(-c3ccccc3Cl)n2)c(F)cn1` [I-44, N-{4-[3-(2-chlorophenyl)-4-(1H-1,2,4-triazol-3-yl)-1H-pyrazol-1-yl]-5-fluoropyridin-2-yl}acetamide], the IC50 is less than 50 nM and the inhibition at 1.11 µM was more than 99%.
For `COC(=O)Nc1cc(-n2cc(-c3nc[nH]n3)c(-c3ccccc3Cl)n2)c(C)cn1` [I-45, methyl {4-[3-(2-chlorophenyl)-4-(4H-1,2,4-triazol-3-yl)-1H-pyrazol-1-yl]-5-methylpyridin-2-yl}carbamate], the inhibition at 1.11 µM was more than 99%.
Regarding `Cc1cnc(NC(=O)C2CC2)cc1-n1cc(-c2nc[nH]n2)c(-c2ccccc2Cl)n1` [I-46, N-{4-[3-(2-chlorophenyl)-4-(1H-1,2,4-triazol-3-yl)-1H-pyrazol-1-yl]-5-methylpyridin-2-yl}cyclopropanecarboxamide], the half-maximal inhibitory concentration (IC50) was less than 50 nM and the inhibition at 1.11 µM is more than 99%.
On to `CC(=O)Nc1cc(-n2cc(C(N)=O)c(-c3ccccc3S(C)(=O)=O)c2)ccn1` [I-47, 1-(2-acetamidopyridin-4-yl)-4-[2-(methylsulfonyl)phenyl]-1H-pyrrole-3-carboxamide], for which the 50% inhibitory concentration (IC50) lay within 150 to 1000 nM and the inhibition at 1.11 µM is 64%.
Turning to `CC(=O)Nc1cc(-n2cc(-c3nc[nH]n3)c(-c3ccccc3C(F)(F)F)n2)c(C)cn1` [I-48, N-(5-methyl-4-{4-(1H-1,2,4-triazol-3-yl)-3-[2-(trifluoromethyl)phenyl]-1H-pyrazol-1-yl}pyridin-2-yl)acetamide], the inhibition at 1.11 µM is more than 99%.
For `COc1ccccc1-c1nn(-c2cc(NC(C)=O)ncc2C)cc1-c1nc[nH]n1` [I-49, N-{4-[3-(2-methoxyphenyl)-4-(1H-1,2,4-triazol-3-yl)-1H-pyrazol-1-yl]-5-methylpyridin-2-yl}acetamide], the half-maximal inhibitory concentration (IC50) was 150 to 1000 nM and the inhibition at 1.11 µM came out at 56%.
For the molecule `CCC(=O)Nc1cc(-n2cc(-c3nc[nH]n3)c(-c3ccccc3Cl)c2)c(C)cn1` [I-50, N-{4-[3-(2-chlorophenyl)-4-(1H-1,2,4-triazol-3-yl)-1H-pyrrol-1-yl]-5-methylpyridin-2-yl}propanamide], the IC50 was less than 50 nM and the inhibition at 1.11 µM is more than 99%.
For the molecule `COC(=O)Nc1cc(-n2cc(C(N)=O)c(-c3ccccc3Cl)c2)c(Cl)cn1` [I-51, methyl {4-[3-carbamoyl-4-(2-chlorophenyl)-1H-pyrrol-1-yl]-5-chloropyridin-2-yl}carbamate], the inhibition at 1.11 µM is 85%.
On the same count and under the same terms, for `CC(=O)Nc1cc(-n2cc(-c3nc[nH]n3)c(-c3ccccc3C#N)n2)c(C)cn1` [I-52, N-{4-[3-(2-cyanophenyl)-4-(1H-1,2,4-triazol-3-yl)-1H-pyrazol-1-yl]-5-methylpyridin-2-yl}acetamide] the value was more than 99%.
For `CC(=O)Nc1cc(-n2cc(-c3ccccc3)c(-c3nnc[nH]3)c2)c(C)cn1` [I-53, N-{5-methyl-4-[3-phenyl-4-(4H-1,2,4-triazol-3-yl)-1H-pyrrol-1-yl]pyridin-2-yl}acetamide], the 50% inhibitory concentration (IC50) was in the range of 150 to 1000 nM and the inhibition at 1.11 µM stood at 81%.
For `COCCOC(=O)Nc1cc(-n2cc(C(N)=O)c(-c3ccccc3Cl)c2)c(C)cn1` [I-54, 2-methoxyethyl {4-[3-carbamoyl-4-(2-chlorophenyl)-1H-pyrrol-1-yl]-5-methylpyridin-2-yl}carbamate], the inhibition at 1.11 µM was more than 99%.
Take `COC(=O)Nc1cc(-n2cc(-c3nc[nH]n3)c(-c3ccccc3Cl)c2)c(C)cn1` [I-55, methyl {4-[3-(2-chlorophenyl)-4-(1H-1,2,4-triazol-3-yl)-1H-pyrrol-1-yl]-5-methylpyridin-2-yl}carbamate]: the IC50 is less than 50 nM and the inhibition at 1.11 µM was more than 99%.
The matching figures for `O=C(Nc1cc(-n2cc(-c3nc[nH]n3)c(-c3ccccc3Cl)n2)c(F)cn1)C1CC1` [I-56, N-{4-[3-(2-chlorophenyl)-4-(1H-1,2,4-triazol-3-yl)-1H-pyrazol-1-yl]-5-fluoropyridin-2-yl}cyclopropanecarboxamide]: less than 50 nM and more than 99%.
The matching figures for `CCc1ccccc1-c1nn(-c2cc(NC(C)=O)ncc2C)cc1-c1nc[nH]n1` [I-57, N-{4-[3-(2-ethylphenyl)-4-(1H-1,2,4-triazol-3-yl)-1H-pyrazol-1-yl]-5-methylpyridin-2-yl}acetamide]: 150 to 1000 nM and 94%.
With `CCN(CC)Cc1ccc(Cl)c(-c2nn(-c3cc(NC(C)=O)ncc3C)cc2-c2nc[nH]n2)c1` [I-58, N-{4-[3-{2-chloro-5-[(diethylamino)methyl]phenyl}-4-(1H-1,2,4-triazol-3-yl)-1H-pyrazol-1-yl]-5-methylpyridin-2-yl}acetamide], the inhibition at 1.11 µM was more than 99%.
Turning to `CC(=O)Nc1cc(-n2cc(-c3nc[nH]n3)c(-c3ccccc3SC(F)(F)F)n2)c(C)cn1` [I-59, N-{5-methyl-4-[4-(1H-1,2,4-triazol-3-yl)-3-{2-[(trifluoromethyl)sulfanyl]phenyl}-1H-pyrazol-1-yl]pyridin-2-yl}acetamide], the half-inhibitory concentration (IC50) lay in the range of 150 to 1000 nM and the inhibition at 1.11 µM was 75%.
In the case of `Cc1cnc(NC(=O)C2CC2)cc1-n1cc(-c2ncc[nH]2)c(-c2ccccc2Cl)n1` [I-60, N-{4-[3-(2-chlorophenyl)-4-(1H-imidazol-2-yl)-1H-pyrazol-1-yl]-5-methylpyridin-2-yl}cyclopropanecarboxamide], the half-maximal inhibitory concentration (IC50) was less than 50 nM and the inhibition at 1.11 µM was more than 99%.
